Data reported in EP3820512B1, “IMMUNOMODULATING COMPOSITIONS COMPRISING OLIGOSACCHARIDE DERIVATIVES” (priority 2018, dated 2020).

Experiments:
TLR2 = target: T1, TLR2 (Homo sapiens, UniProt O60603); experiment: TLR2 activity in PMA-stimulated THP-1 monocyte cells, ELISA of cell lysate; format: cell-based; details: THP-1 cells
T1 construct: endogenous in cells; host or cells: THP-1 monocyte cells stimulated with PMA
Procedure: THP-1 monocyte cells (1×10^5) were stimulated with 200nM of PMA for 48h and treated with different concentrations of test compounds. The TLR2 activity was measured after 24 h from the cell lysate using ELISA.

[1] = tested on: THP-1 (human monocytic) cells; experiment: Cytokine response (IL-1β, TNF-α, IL-10) of THP-1 cells treated with compounds; format: cell-based; details: 100-200 µM
Procedure: When THP-1 (human monocytic) cells were treated with 100-200 µM of compounds 8, 14, 17, 23, 29, and 32, they produced an increased IL-1β and TNF-α response, decreased anti-inflammatory cytokine IL-10 (FIG. 4).

hPBMC = experiment: Cytotoxicity in hPBMC, MTT cell proliferation kit; format: cell-based, human; details: 0.1, 1.0, 10, 100 and 1000 µM, 24h
Procedure: The cells were treated with compounds and incubated for 24h. Cell viability was assessed using MTT cell proliferation kit (Promega).

HUVECs = experiment: Cytotoxicity in HUVECs, MTT cell proliferation kit; format: cell-based, human; details: 100 µM, 24h
Procedure: Selected TLR2/4 antagonist compounds 2, 6, 7, 8, 14, 17 and 32 were evaluated for cytotoxicity in HUVECs at 100 µM concentration. The cells were treated with compounds and incubated for 24h. Cell viability was assessed using MTT cell proliferation kit (Promega). All the compounds were not toxic to HUVECs (FIG. 15).

[2] = tested on: VEGF induced tube formation in HUVECs; experiment: Anti-angiogenic activity, Tube Formation kit, VEGF induced; format: cell-based, human; details: VEGF 100ng/mL
Procedure: Selected TLR2/4 antagonist compounds 2, 6, 7, 8, 14, 17 and 32 were evaluated for anti-angiogenic activity using the Tube Formation kit (Cat#3470-096-K). VEGF (100ng/mL) was used as positive control. These compounds have potential applications in diseases associated with pathological angiogenesis such as solid tumor, […], diabetic retinopathy as well as AMD.

TLR4 = TLR4 (Homo sapiens, UniProt O00206); experiment: TLR4 inhibitory and activating activity in THP-1 cells at low and high concentrations; format: cell-based; design: endogenous in cells; host or cells: THP-1 (human monocytic) cells; details: for % activation over control TLR4 / % inhibition over control TLR4: THP-1 cells; for TLR2/4 antagonist activity: as shown in Table-1 (FIG. 1), TLR2 and TLR4
TLR4, sequence (O00206 24-839): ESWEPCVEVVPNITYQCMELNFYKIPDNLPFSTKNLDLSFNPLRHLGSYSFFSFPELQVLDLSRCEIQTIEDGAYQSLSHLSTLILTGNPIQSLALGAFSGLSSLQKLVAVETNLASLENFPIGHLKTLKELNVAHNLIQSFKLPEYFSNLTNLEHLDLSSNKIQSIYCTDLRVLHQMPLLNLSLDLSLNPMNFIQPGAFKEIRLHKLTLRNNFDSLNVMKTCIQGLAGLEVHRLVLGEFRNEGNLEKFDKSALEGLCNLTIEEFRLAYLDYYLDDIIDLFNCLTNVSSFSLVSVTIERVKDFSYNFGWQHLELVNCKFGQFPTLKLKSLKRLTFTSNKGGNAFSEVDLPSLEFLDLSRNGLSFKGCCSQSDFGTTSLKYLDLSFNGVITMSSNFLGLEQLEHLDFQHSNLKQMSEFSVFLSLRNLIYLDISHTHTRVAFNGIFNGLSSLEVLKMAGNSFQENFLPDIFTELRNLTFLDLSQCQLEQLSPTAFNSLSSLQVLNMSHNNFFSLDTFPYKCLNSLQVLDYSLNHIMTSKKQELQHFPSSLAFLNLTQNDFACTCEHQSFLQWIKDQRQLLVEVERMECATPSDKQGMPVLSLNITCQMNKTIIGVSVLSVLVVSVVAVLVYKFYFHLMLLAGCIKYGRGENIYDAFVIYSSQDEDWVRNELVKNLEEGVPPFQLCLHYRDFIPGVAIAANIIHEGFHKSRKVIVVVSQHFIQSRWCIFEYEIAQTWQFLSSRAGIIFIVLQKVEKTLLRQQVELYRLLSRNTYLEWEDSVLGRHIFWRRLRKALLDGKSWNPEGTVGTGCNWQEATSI
TLR4, sequence (Q9Y6Y9 17-160 partner limits assumed): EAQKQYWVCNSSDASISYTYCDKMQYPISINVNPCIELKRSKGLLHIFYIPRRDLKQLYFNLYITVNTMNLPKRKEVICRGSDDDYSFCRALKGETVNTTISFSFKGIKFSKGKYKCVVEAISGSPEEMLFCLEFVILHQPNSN

[3] = tested on: P. aeruginosa (ATCC-10145 GFP) infected skin wounds; experiment: Murine study of skin wound infection; format: in vivo, C57BL6 mice
Procedure: Five groups of C57BL/6 mice (8-10 weeks old, n = 4) were wounded on the dorsal surface. 25µl containing 10^6 CFU/mL P. aeruginosa in a PBS suspension were pipetted onto the wound and allowed to absorb for at least 3 min. […] Subsequently and for the next 13 days, infected wounds were treated each alternate day with colistin, or with test compounds.
Along with that less focal inflammation is observed in compound treated groups vs PA group.

[4] = tested on: hyperoxia induced BPD in mouse pups; experiment: Hyperoxia-exposed BPD mouse model (newborn pups); format: in vivo
Text: Neonatal mice and humans undergo similar stages of lung development but differ with respect to the duration of each stage and its temporal relationship to gestational age. The lungs of the mouse born at term are in the saccular stage and are surfactant sufficient; this can be considered somewhat akin to a human preterm neonate in the same stage of lung development that has been exposed to a full complement of antenatal steroids (which is known to enhance surfactant production). In terms of mimicking the human condition, the most successful hyperoxia models are those that limit exposure to hyperoxia to the saccular stage of pulmonary development. The mouse BPD model involves exposing newborn mice (postnatal day 1 or PN1) to 100% oxygen till PN4 followed by recovery in room air (RA) for another 10 days.
After the recovery period, their lungs were harvested and processed for quantitative PCR, western blotting, histopathology and ELISA.
After the recovery period, their lungs were harvested and processed for quantitative PCR, western blotting and histopathology and ELISA.
BPD is characterized by large simplified alveoli, inflammation, increased cell death, decreased cell proliferation, dysmorphic capillary configuration, and variable interstitial cellularity and/or fibroproliferation. […] This is determined by measuring the alveolar chord length, septal thickness and radial alveolar count (RAC). In BPD, the alveolar area increases which is characterized by increase in the diameter of the alveolar sacs, the septa become thickened (thus interfering in gaseous exchange) and the RAC, a parameter used to assess the complexity of terminal respiratory unit by pulmonologists, decreases as a result of arrested lung development.

T1 sequence (O60603 21-784): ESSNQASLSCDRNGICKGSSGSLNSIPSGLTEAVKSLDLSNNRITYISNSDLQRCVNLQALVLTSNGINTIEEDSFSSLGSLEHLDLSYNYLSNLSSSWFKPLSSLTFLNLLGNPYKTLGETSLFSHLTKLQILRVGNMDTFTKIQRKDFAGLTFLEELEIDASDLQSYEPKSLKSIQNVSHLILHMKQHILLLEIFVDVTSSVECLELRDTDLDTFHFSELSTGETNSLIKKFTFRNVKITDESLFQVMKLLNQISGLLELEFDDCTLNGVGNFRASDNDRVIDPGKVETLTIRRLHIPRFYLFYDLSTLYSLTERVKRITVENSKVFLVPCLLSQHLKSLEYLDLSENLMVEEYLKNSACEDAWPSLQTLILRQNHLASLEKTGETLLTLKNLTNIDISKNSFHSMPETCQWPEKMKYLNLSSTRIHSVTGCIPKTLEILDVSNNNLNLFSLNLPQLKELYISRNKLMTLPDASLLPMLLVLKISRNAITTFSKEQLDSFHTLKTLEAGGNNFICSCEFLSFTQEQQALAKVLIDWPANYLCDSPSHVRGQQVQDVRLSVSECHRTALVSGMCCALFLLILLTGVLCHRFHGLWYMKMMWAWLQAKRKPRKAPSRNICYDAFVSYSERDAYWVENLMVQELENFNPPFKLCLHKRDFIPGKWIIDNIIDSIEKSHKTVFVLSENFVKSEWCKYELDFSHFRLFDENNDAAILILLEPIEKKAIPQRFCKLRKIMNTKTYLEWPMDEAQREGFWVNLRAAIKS

Row | TLR2/4 antagonist activity (TLR4; summary in words) | Compound | % inhibition over control TLR2 (TLR2; Concentration 1-10 µM) | % inhibition over control TLR2 (TLR2; Concentration 75-100 µM) | cytotoxicity in hPBMC (cell viability) (hPBMC) | cytotoxicity in HUVECs (cell viability) (HUVECs) | VEGF induced tube formation [2] | % activation over control TLR4 (TLR4; Concentration 75-100 µM) | % inhibition over control TLR4 (TLR4; Concentration 1-10 µM) | % inhibition over control TLR4 (TLR4; Concentration 75-100 µM) | also measured
1 | – | CC(=O)N[C@H]1[C@H](Oc2ccc3nonc3c2)O[C@H](CO)[C@@H](O)[C@H]1O (stereo in doubt) [Compound 17, N-((2S,3R,4S,5S,6R)-2-(benzo[c][1,2,5]oxadiazol-5-yloxy)-4,5-dihydroxy-6-(hydroxymethyl)tetrahydro-2H-pyran-3-yl)acetamide] | ++ (++ means that the % of inhibition or activation is in the range of 25-75%) | +++ (+++ means that the % of inhibition or activation is in the range of 75-95%) | not toxic | not toxic | significantly decreased | ++ (++ means that the % of inhibition or activation is in the range of 25-75%) | – | – | IL-1β response [1]: increased; TNF-α response [1]: increased; anti-inflammatory cytokine IL-10 [1]: decreased
2 | – | colistin [reference compound] | – | – | – | – | – | – | – | – | Re-epithelialization and granulation tissue ([3]; H&E histology, day 13 post-injury, vs controls, p=0.050 (Colistin, compound 1), p=0.073 (compound 8)): significantly enhanced; closure of P. aeruginosa infected skin wounds ([3]; topical, each alternate day, day 13, compounds 100µM / 100µg /ml, Colistin 4µg/ml): complete closure
3 | potent TLR2/4 antagonists | CC(=O)N[C@@H]1[C@@H](OC(C)=O)[C@H](OC(C)=O)[C@@H](COC(C)=O)O[C@H]1NC(=O)c1ccc(O[C@@H]2O[C@H](CO)[C@@H](O)[C@H](O)[C@H]2NC(C)=O)cc1 [Compound 2] | + (+ means that the % of inhibition or activation is in the range of 15-25%) | +++ (+++ means that the % of inhibition or activation is in the range of 75-95%) | not toxic | not toxic | significantly decreased | – | ++ (++ means that the % of inhibition or activation is in the range of 25-75%) | +++ (+++ means that the % of inhibition or activation is in the range of 75-95%) | –
4 | potent TLR2/4 antagonists | CC(=O)N[C@H]1[C@H](Oc2ccc(NC(=O)c3ccc(O[C@@H]4O[C@H](CO)[C@@H](O)[C@H](O)[C@H]4NC(C)=O)cc3)cc2)O[C@H](CO)[C@@H](O)[C@@H]1O [Compound 7] | ++ (++ means that the % of inhibition or activation is in the range of 25-75%) | +++ (+++ means that the % of inhibition or activation is in the range of 75-95%) | not toxic | not toxic | significantly decreased | – | +++ (+++ means that the % of inhibition or activation is in the range of 75-95%) | +++ (+++ means that the % of inhibition or activation is in the range of 75-95%) | –
5 | potent TLR2/4 antagonists | CC(=O)N[C@@H]1[C@@H](O)[C@H](O)[C@@H](CO)O[C@H]1NC(=O)c1ccc(O[C@@H]2O[C@H](CO)[C@@H](O)[C@H](O)[C@H]2NC(C)=O)cc1 [Compound 3] | ++ (++ means that the % of inhibition or activation is in the range of 25-75%) | +++ (+++ means that the % of inhibition or activation is in the range of 75-95%) | – | – | – | – | ++ (++ means that the % of inhibition or activation is in the range of 25-75%) | +++ (+++ means that the % of inhibition or activation is in the range of 75-95%) | TLR4 inhibition in vivo ([4]; neonatal pups with BPD): inhibit; lung architecture ([4]; saline (IV) and nanosuspension (IN) formulation): restored
6 | – | CC(=O)NC1[C@H](Oc2ccc(N3CCN(C(C)=O)CC3)cc2)O[C@H](CO)[C@@H](O)[C@@H]1O (single isomer, unassigned) [Compound 28] | – | – | – | – | – | ++ (++ means that the % of inhibition or activation is in the range of 25-75%) | + (+ means that the % of inhibition or activation is in the range of 15-25%) | – | –
7 | – | CC(=O)NC1[C@H](Oc2cccc3sc(NC(=O)C(C)(C)C)nc23)O[C@H](CO)[C@@H](O)[C@@H]1O (single isomer, unassigned) [Compound 23] | – | – | – | – | – | – | + (+ means that the % of inhibition or activation is in the range of 15-25%) | + (+ means that the % of inhibition or activation is in the range of 15-25%) | IL-1β response [1]: increased; TNF-α response [1]: increased; anti-inflammatory cytokine IL-10 [1]: decreased
8 | – | COc1ccc(O[C@@H]2O[C@H](CO)[C@@H](O)[C@H](O)[C@H]2NC(C)=O)cc1 [Compound 38] | – | ++ (++ means that the % of inhibition or activation is in the range of 25-75%) | – | – | – | – | – | – | –
9 | potent TLR2/4 antagonists | CC(=O)N[C@H]1[C@H](Oc2ccc(C#N)cc2)O[C@H](CO)[C@@H](O)[C@@H]1O [Compound 14, p-Cyanophenyl 2-acetamido-2-deoxy-β-D-glucopyranoside] | – | – | not toxic | not toxic | significantly decreased | – | – | – | IL-1β response [1]: increased; TNF-α response [1]: increased; anti-inflammatory cytokine IL-10 [1]: decreased; % inhibition over control TLR4 (TLR4; Concentration 1 µM): +++ (+++ means that the % of inhibition or activation is in the range of 75-95%); % inhibition over control TLR4 (TLR4; Concentration 100 µM): +++ (+++ means that the % of inhibition or activation is in the range of 75-95%)
10 | potent TLR2/4 antagonists | CC(=O)N[C@H]1[C@H](Oc2ccc(C(=O)Nc3ccc(O[C@@H]4O[C@H](COC(C)=O)[C@@H](OC(C)=O)[C@H](OC(C)=O)[C@H]4NC(C)=O)cc3)cc2)O[C@H](CO)[C@@H](O)[C@@H]1O [Compound 6] | – | – | – | not toxic | significantly decreased | – | ++ (++ means that the % of inhibition or activation is in the range of 25-75%) | +++ (+++ means that the % of inhibition or activation is in the range of 75-95%) | –
11 | – | CC(=O)N[C@H]1[C@H](Oc2ccc3c(C)cc(=O)oc3c2)O[C@H](COS(=O)(=O)O)[C@@H](O)[C@@H]1O [Compound 30] | – | – | – | – | – | + (+ means that the % of inhibition or activation is in the range of 15-25%) | + (+ means that the % of inhibition or activation is in the range of 15-25%) | – | % activation over control TLR4 (TLR4; Concentration 1-10 µM): + (+ means that the % of inhibition or activation is in the range of 15-25%)
12 | – | CC(=O)N[C@H]1[C@H](Oc2ccc([N+](=O)[O-])cc2Cl)O[C@H](CO)[C@@H](O)[C@@H]1O [Compound 11] | – | – | – | – | – | – | + (+ means that the % of inhibition or activation is in the range of 15-25%) | + (+ means that the % of inhibition or activation is in the range of 15-25%) | –

Row | Compound | TLR2/4 antagonist activity (TLR4; summary in words) | % inhibition over control TLR2 (TLR2; Concentration 1-10 µM) | % inhibition over control TLR2 (TLR2; Concentration 75-100 µM) | cytotoxicity in hPBMC (cell viability) (hPBMC) | cytotoxicity in HUVECs (cell viability) (HUVECs) | VEGF induced tube formation [2] | % activation over control TLR4 (TLR4; Concentration 75-100 µM) | % inhibition over control TLR4 (TLR4; Concentration 1-10 µM) | % inhibition over control TLR4 (TLR4; Concentration 75-100 µM) | also measured
13 | CC(=O)NC1[C@H](Oc2ccc(B(O)O)cc2)O[C@H](CO)[C@@H](O)[C@@H]1O (single isomer, unassigned) [Compound 35, p-Boronic acid phenyl 2-acetamido-2-deoxy-β-D-glucopyranoside] | potent TLR2/4 antagonists | – | – | – | – | – | ++ (++ means that the % of inhibition or activation is in the range of 25-75%) | +++ (+++ means that the % of inhibition or activation is in the range of 75-95%) | – | TLR4 modulatory activity (TLR4; summary in words): concentration dependent TLR4 modulatory activity
